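Exposure lasted 48 hours, with cells grown in 96-well plates and compounds tested at five concentrations. GI50: concentration for 50% inhibition of growth.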 Activity calls are given as the source filed them. Rule as the data show it: active = GI50 up to about 1.1 µM and inactive = higher.
Tests used:
Assay in all cases: NCI tumour cell line growth inhibition, 48 h
TK-10 = test system: TK-10
KM12 = test system: KM12
SF-268 = test system: SF-268
SK-OV-3 = test system: SK-OV-3
SK-MEL-5 = test system: SK-MEL-5
UACC-257 = test system: UACC-257
OVCAR-3 = test system: OVCAR-3
HCC 2998 = test system: HCC 2998
PC-3 = test system: PC-3
M14 = test system: M14
T47D = test system: T47D
MCF7 = test system: MCF7
SF-539 = test system: SF-539
RPMI-8226 = test system: RPMI-8226
OVCAR-5 = test system: OVCAR-5
NCI-H522 = test system: NCI-H522
SR = test system: SR
HOP-92 = test system: HOP-92
MDA-N = test system: MDA-N
SNB-75 = test system: SNB-75

SMILES: NNC(=O)CCc1ccc2ccc3ccccc3c2c1
- GI50 (TK-10): > 100 µM (inactive)
- GI50 (KM12): > 100 µM (inactive)
- GI50 (SF-268): 62.2 µM (inactive)
- GI50 (SK-OV-3): > 100 µM (inactive)
- GI50 (SK-MEL-5): 92.3 µM (inactive)
- GI50 (UACC-257): > 100 µM (inactive)
- GI50 (OVCAR-3): 29.9 µM (inactive)
- GI50 (HCC 2998): > 100 µM (inactive)
- GI50 (PC-3): 67.3 µM (inactive)
- GI50 (M14): 71.8 µM (inactive)
- GI50 (T47D): 70.6 µM (inactive)
- GI50 (MCF7): > 100 µM (inactive)
- GI50 (SF-539): 54.6 µM (inactive)
- GI50 (RPMI-8226): 72.1 µM (inactive)
- GI50 (OVCAR-5): > 100 µM (inactive)
- GI50 (NCI-H522): 28.8 µM (inactive)
- GI50 (SR): > 100 µM (inactive)
- GI50 (HOP-92): 58.7 µM (inactive)
- GI50 (MDA-N): > 100 µM (inactive)

SMILES: COc1cccc2c1C(=O)c1c(O)c3c(c(O)c1C2=O)C[C@@](O)(C(=O)CO)C[C@@H]3OC1CC(N2CCOCC2)C(O)C(C)O1 (some centres undefined)
- GI50 (TK-10): 0.0485 µM (active)
- GI50 (KM12): 0.0246 µM (active)
- GI50 (SF-268): 0.0239 µM (active)
- GI50 (SK-OV-3): 0.00292 µM (active)
- GI50 (SK-MEL-5): 0.0025 µM (active)
- GI50 (UACC-257): 0.00267 µM (active)
- GI50 (OVCAR-3): 0.0025 µM (active)
- GI50 (HCC 2998): 0.0127 µM (active)
- GI50 (PC-3): 0.033 µM (active)
- GI50 (M14): 0.0324 µM (active)
- GI50 (T47D): 0.0574 µM (active)
- GI50 (SNB-75): 0.0025 µM (active)
- GI50 (MCF7): 0.0025 µM (active)
- GI50 (SF-539): 0.0025 µM (active)
- GI50 (RPMI-8226): 0.0025 µM (active)
- GI50 (OVCAR-5): 0.00275 µM (active)
- GI50 (NCI-H522): 0.0025 µM (active)
- GI50 (SR): 0.00466 µM (active)
- GI50 (HOP-92): 0.00975 µM (active)
- GI50 (MDA-N): 0.0328 µM (active)

SMILES: COC(=O)c1cc(NC2OCC(OC(C)=O)C(OC(C)=O)C2OC(C)=O)nc(SC)c1C(=O)OC (centres undefined)
- GI50 (TK-10): > 100 µM (inactive)
- GI50 (KM12): > 100 µM (inactive)
- GI50 (SF-268): > 100 µM (inactive)
- GI50 (SK-MEL-5): > 100 µM (inactive)
- GI50 (UACC-257): > 100 µM (inactive)
- GI50 (OVCAR-3): > 100 µM (inactive)
- GI50 (HCC 2998): > 100 µM (inactive)
- GI50 (PC-3): > 100 µM (inactive)
- GI50 (M14): > 100 µM (inactive)
- GI50 (T47D): > 100 µM (inactive)
- GI50 (SNB-75): 49.9 µM (inactive)
- GI50 (MCF7): > 100 µM (inactive)
- GI50 (SF-539): > 100 µM (inactive)
- GI50 (RPMI-8226): > 100 µM (inactive)
- GI50 (OVCAR-5): > 100 µM (inactive)
- GI50 (NCI-H522): > 100 µM (inactive)
- GI50 (SR): > 100 µM (inactive)
- GI50 (HOP-92): > 100 µM (inactive)
- GI50 (MDA-N): > 100 µM (inactive)

SMILES: CN1c2ccccc2C(=O)NC12CCN(CCCC(=O)c1ccc(F)cc1)CC2
- GI50 (KM12): > 100 µM (inactive)
- GI50 (SF-268): 17.8 µM (inactive)
- GI50 (SK-OV-3): > 100 µM (inactive)
- GI50 (SK-MEL-5): 26.1 µM (inactive)
- GI50 (UACC-257): 29 µM (inactive)
- GI50 (OVCAR-3): 48.9 µM (inactive)
- GI50 (HCC 2998): 19.7 µM (inactive)
- GI50 (PC-3): 78.2 µM (inactive)
- GI50 (M14): 15.5 µM (inactive)
- GI50 (T47D): 29 µM (inactive)
- GI50 (SNB-75): 71.6 µM (inactive)
- GI50 (MCF7): 55 µM (inactive)
- GI50 (SF-539): 50.6 µM (inactive)
- GI50 (RPMI-8226): 33.1 µM (inactive)
- GI50 (OVCAR-5): > 100 µM (inactive)
- GI50 (NCI-H522): 26.7 µM (inactive)
- GI50 (SR): 32.4 µM (inactive)
- GI50 (HOP-92): 62.1 µM (inactive)
- GI50 (MDA-N): 88.7 µM (inactive)

SMILES: NC(CCCCCCCCCCP(=O)(O)O)C(=O)O (centres undefined)
- GI50 (TK-10): > 100 µM (inactive)
- GI50 (KM12): > 100 µM (inactive)
- GI50 (SF-268): > 10 µM (inactive)
- GI50 (SK-OV-3): > 100 µM (inactive)
- GI50 (SK-MEL-5): > 100 µM (inactive)
- GI50 (UACC-257): > 100 µM (inactive)
- GI50 (OVCAR-3): > 100 µM (inactive)
- GI50 (HCC 2998): > 100 µM (inactive)
- GI50 (PC-3): > 100 µM (inactive)
- GI50 (M14): > 100 µM (inactive)
- GI50 (T47D): > 100 µM (inactive)
- GI50 (SNB-75): 7.73 µM (inactive)
- GI50 (MCF7): > 100 µM (inactive)
- GI50 (SF-539): > 100 µM (inactive)
- GI50 (RPMI-8226): > 100 µM (inactive)
- GI50 (OVCAR-5): > 100 µM (inactive)
- GI50 (NCI-H522): 85.5 µM (inactive)
- GI50 (SR): > 100 µM (inactive)
- GI50 (HOP-92): > 100 µM (inactive)
- GI50 (MDA-N): > 100 µM (inactive)

SMILES: COC(=O)[C@@H]1C=C[C@H](NC(C)=O)C1
- GI50 (TK-10): > 100 µM (inactive)
- GI50 (KM12): > 100 µM (inactive)
- GI50 (SK-OV-3): > 100 µM (inactive)
- GI50 (SK-MEL-5): > 100 µM (inactive)
- GI50 (UACC-257): > 100 µM (inactive)
- GI50 (OVCAR-3): > 100 µM (inactive)
- GI50 (HCC 2998): > 100 µM (inactive)
- GI50 (PC-3): > 100 µM (inactive)
- GI50 (M14): > 100 µM (inactive)
- GI50 (T47D): > 100 µM (inactive)
- GI50 (SNB-75): > 100 µM (inactive)
- GI50 (MCF7): > 100 µM (inactive)
- GI50 (RPMI-8226): > 100 µM (inactive)
- GI50 (OVCAR-5): > 100 µM (inactive)
- GI50 (SR): > 100 µM (inactive)
- GI50 (HOP-92): > 100 µM (inactive)
- GI50 (MDA-N): > 100 µM (inactive)
